Measurements reported in PubChem BioAssay AID2305 (GlaxoSmithKline (GSK), 2010).
Values joined by “and” are separate entries in the source; they are usually repeats but may differ in a detail not shown here. Equal values may be shown once.

system: P. falciparum 3D7 growth, pLDH absorbance; experiment: P. falciparum 3D7 growth inhibition, dose response, strain 3D7 (AID 2305)

SMILES | IC50
Cc1ccc(Cc2cnc(NCCSCc3ccc(CN(C)C)s3)[nH]c2=O)cn1 | 860 nM
Cc1noc(C)c1-c1cccc(CNCc2cccc(-c3csc(-c4nc5ccccc5[nH]4)c3)c2)c1 | 260 nM
COc1cccc(Cc2cnc3nc(N)nc(N)c3c2C)c1 | 170 nM
CCCCn1c(N)c(N(Cc2ccco2)C(=O)C=Cc2cc(OC)c3c(c2)OCCO3)c(=O)[nH]c1=O | 950 nM
CCCCSc1nc2c(c(=O)n1Cc1ccco1)C1(CCCCC1)Cc1ccccc1-2 | 960 nM
O=C(/C=C/c1ccc(Cl)c(Cl)c1)N1CCC(CN2CCC(c3c[nH]c4ccc(NS(=O)(=O)c5cccs5)cc34)CC2)CC1 | 220 nM
c1ccc(COc2ccnc(NCCCOc3cccc(CN4CCCCC4)c3)c2)cc1 | 990 nM
COc1ccc(C2CCC(NCCCCNC(=O)c3ccc(NC(=O)c4ccc(Cl)cc4)cc3)CC2)cc1 (stereo not given) | 630 nM
CCc1ccccc1N1CCN(CCCCNC(=O)c2ccc(NC(=O)c3ccc(Cl)cc3)cc2)CC1 | 960 nM
CCC(=O)Nc1cc(=O)[nH]c2nc(-c3ccc(Cl)cc3)nn12 | 570 nM
COCCOc1ccc(C(F)(F)F)cc1NC(=O)Cc1c(F)cccc1Cl | 1000 nM
CC(C)CNCc1cccc(-c2cccc(CN(C(=O)NC3CCCCC3)C3CCN(Cc4ccccc4)CC3)c2)c1 | 820 nM
O=[N+]([O-])c1cccc(C=NNc2nc(Nc3ccccc3)nc(Nc3ccccc3)n2)c1 | 970 nM
CCCC(=O)Nc1ccc(OCCCN(Cc2cccc(C(F)(F)F)c2)c2ccc(C#N)c(C(F)(F)F)c2)cc1 | 1090 nM
FC(F)(F)c1cccc2c(NN=Cc3ccccc3)ccnc12 | 620 nM
COc1cc2cc(C(=O)Nc3ccccc3)c(N)nc2cc1OC | 1130 nM
c1cc(CNCCc2ccncc2)cc(-c2cccc(-c3nc4ccccc4[nH]3)c2)c1 | 150 nM
O=C(/C=C/c1cccc(OC(F)(F)F)c1)NCCCCCN1CCC(c2c[nH]c3ccccc23)CC1 | 960 nM
CCCCCC(=O)N1CCOC(CCN2CCC(c3ccccc3)CC2)(c2ccc(Cl)c(Cl)c2)C1 (stereo not given) | 1120 nM
O=C(c1ccc(OCCn2ccnc2)cc1)N1CCC(c2ccc(Br)cc2)C1 (stereo not given) | 120 nM
COc1cc2nc(Nc3ccc4c(c3)OCCO4)nc(N)c2cc1OC | 470 nM
O=C(O[C@@H]1CN[C@H](C#Cc2cc3ncnc(Nc4ccc5c(cnn5Cc5cccc(F)c5)c4)c3s2)C1)N1CCCC1 | 760 nM
CCCC(C)Nc1nc(C)cc(N[C@@H](Cc2ccccc2)C(=O)NCCOc2ccccc2)n1 (stereo not given in full) | 700 nM
COc1ccc(Nc2nc(NC3CCN(C)CC3)cc(-c3ccc(OC)cc3)n2)cc1 | 540 nM

SMILES | IC50
O=C(Cn1c(CCc2cccc(F)c2F)nc(=O)c2ccccc21)N(Cc1ccc(-c2ccc(C(F)(F)F)cc2)cc1)C1CCN(C2=NCCS2)CC1 | 1330 nM
Cc1ccc(C(=O)Cn2nc(-c3ccc(C)c(S(=O)(=O)N4CCCCC4)c3)ccc2=O)cc1 | 330 nM
OCc1ccc(-c2cncc(Nc3cccc(Cl)c3)c2)cc1 | 70 nM
Cc1cccc(-c2nc(Nc3ccncc3)c3cc(N(C)C)ccc3n2)n1 | 710 nM
Cc1ccccc1CNc1noc(-c2sccc2Br)n1 | 380 nM
COc1cccc([C@@H](CC(=O)Nc2cc(C(F)(F)F)ccc2OC)Nc2ccc(C#N)c3ccccc23)c1 | 990 nM
C/C=C/COc1ccc(-c2c(C)[nH]c(C)c(Cl)c2=O)cc1 | 200 nM
CC(C)CN1C(=O)c2ccc(C(=O)Nc3nccs3)cc2C1=O | 970 nM
CCN(CC)Cc1cc(NC(=O)c2ccccc2O)ccc1Oc1ccc(Cl)cc1 | 830 nM
CCOC(=O)c1ccc(NC(=O)N[C@@H](Cc2ccccc2)C(=O)NC2CCN(Cc3ccc(O)cc3)C2)cc1 (stereo not given in full) | 630 nM
Cc1cc2nc(-c3ccc(/C=C/C(=O)NCc4ccc(Cl)c(Cl)c4)cc3)[nH]c2cc1C | 820 nM
O=C(/C=C/c1ccc(Cl)c(Cl)c1)NC1CCC(CN2CCC(c3nc4ccc(O)cc4[nH]3)CC2)CC1 (stereo not given) | 240 nM
Cc1cnc(C(=O)Nc2cccc(-c3csc(-c4nc5ccccc5[nH]4)c3)c2)cn1 | 270 nM
O=C(Cn1c2ccccc2c(=O)c2ccc(Cl)cc21)Nc1ccc(C(F)(F)F)cc1 | 530 nM
NC(=O)c1ccccc1Nc1nc(Nc2cccc(N3CCN(CCO)CC3)c2)ncc1Cl | 40 nM
CNc1ccc(CNCc2ccc(-c3ccc(-c4nc5ccc(F)cc5[nH]4)cc3)cc2)cc1 | 210 nM
O=C(NCc1ccc2c(c1)OCO2)c1nn(CCN2CCC(N3CCCC3)CC2)cc1-c1ccc(Cl)c(Cl)c1 | 940 nM
COc1ccc(CN(C)CCCc2ccc(NC(=O)c3cccc4c(=O)c5ccccc5[nH]c34)cc2)cc1OC | 1370 nM
Cc1nc2nc(N)nc(N)c2c(C)c1Cc1cccc(F)c1 | 340 nM
COc1ccc2nccc(NC(=O)C3CCC(NCc4ccc5c(c4)NC(=O)CS5)CC3)c2c1 (stereo not given) | 590 nM
CCC(Cc1cnc2nc(N)nc(N)c2n1)c1ccc(C(=O)O)cc1 (stereo not given) | 250 nM
Cc1[nH]c(C)c(-c2ccc(CCc3ccc(C(F)(F)F)cc3)nc2)c(=O)c1Cl | 90 nM
O=c1cc(NCCCNC2CCCc3c2cc(Cl)c(Cl)c3Cl)[nH]c2ccccc12 (stereo not given) | 280 nM
O=c1[nH]c2ccc3[nH]cccc3c2c1C=Nc1ccc(Cn2ccnc2)cc1 | 660 nM

SMILES | IC50
CCCCOC(=O)c1ccc(NC(=O)Nc2ccc(Cn3ncc(N4CCCNCC4)c(Cl)c3=O)cc2)cc1 | 740 nM
O=C1Nc2cccc3c2C1(CCCCCN1CCC(c2c[nH]c4ccncc24)CC1)CCC3 (stereo not given) | 990 nM
Oc1cc2c(cc1CN1CCN(Cc3ccc(Cl)s3)CC1)CCC2 | 620 nM
CCCNCc1ccc(-c2ccc(CNC3Cc4ccccc4C3)cc2)nc1 | 850 nM
c1ccc(CN2CCC(NCc3ccccc3-c3ccc(CNCc4ccc5c(c4)OCO5)cc3)CC2)cc1 | 330 nM
CC1(C)CCC(C)(C)c2c1ccc(C1CCN(CCCCNC(=O)c3ccc(-c4ccc(C#N)cc4)cc3)CC1)c2OCC(N)=O | 420 nM
Cc1cc(N2CCN(CC3CCN(C)CC3)CC2)nc(Nc2ccc(Br)cc2)n1 | 440 nM
O=C(Nc1cccc(CN2CCCN(Cc3ncc[nH]3)CC2)c1)c1ccc(-c2ccccc2)cc1 | 650 nM
CC(=O)c1c(Cc2cccc(C(F)(F)F)c2)c[nH]c1C | 350 nM
CCCc1ccc(-c2csc(NC(=O)c3ccc([N+](=O)[O-])o3)n2)cc1 | 1210 nM
COc1ccc(CCN(C)CCOc2ccc(NC(=O)c3cccc4c(=O)c5cc(SC)ccc5[nH]c34)cc2)cc1OC | 740 nM
Cc1cccc2[nH]c(-c3ccc(-c4cccc(NC(=O)c5cnccc5C(F)(F)F)c4)cc3)nc12 | 1000 nM
N#Cc1ccc(N2CCN(Cc3cccc(-c4ccc(-c5nc6ccc(C(F)(F)F)cc6[nH]5)s4)c3)CC2)nc1 | 1040 nM
O=C(NCC1CCN(Cc2cccc(C(F)(F)F)c2)C1)c1cc(-c2cccc(F)c2)cs1 (stereo not given) | 1180 nM
O=C(Nc1nc(-c2ccccn2)cs1)c1ccc(Br)s1 | 1060 nM
CC(C)(C)c1ccc(CNCCOc2ccc(Nc3nnc(-c4ccc(-c5ncc[nH]5)cc4)o3)c3ccccc23)cc1 | 140 nM
O=C(/C=C/c1ccc(Cl)c(Cl)c1)NCC[C@@H]1C[C@H]1CCN1CCC(c2c[nH]c3ccccc23)CC1 | 790 nM
O=C(NC1CCN(CCN2CCC(c3cn(CCO)c4ccccc34)CC2)CC1)c1ccc(-c2ccc(C(F)(F)F)cc2)cc1 | 740 nM
CC[C@H]1CN2CC[C@@H]1C[C@H]2[C@H](O)c1cc(N2CCCC(C)(C)C2)nc2ccc(OC)cc12 | 340 nM
CCn1cc(C(=O)O)c(=O)c2cc(F)c(N3CCN(S(=O)(=O)c4ccc(N)cc4)CC3)cc21 | 920 nM
CCc1ccc(CNCC(CCNc2cc(=O)c3ccccc3[nH]2)NCc2cc(Br)cc(Br)c2)o1 (stereo not given) | 640 nM
COc1ccccc1N1CCN(CCCCNC(=O)c2ccc(NC(=O)c3ccc(OC(F)(F)F)cc3)cc2)CC1 | 660 nM
Cc1cc(N)c2cc(NC(=O)c3cc(C(F)(F)F)cc(C(F)(F)F)c3)ccc2n1 | 90 nM
O=C(NC1CCC(CN2CCC(c3c[nH]c4ccccc34)CC2)CC1)c1cc(-c2ccccc2Cl)n(-c2cccc(Cl)c2)n1 (stereo not given) | 850 nM

SMILES | IC50
O=C(Nc1ccc(Cn2nc(Cl)c(N3CCCNCC3)cc2=O)cc1)c1ccc(-c2ccccc2)cc1 | 710 nM
Oc1ccc(Cl)cc1CN1CCC(CCOC(c2ccccc2)c2ccccc2)CC1 | 650 nM
CC(C)Cn1ccc2c3c(N)nc(N)nc3ccc21 | 30 nM
COc1ccccc1NC(=O)NC1CCN(CCCCCNC(=O)/C=C/c2ccc(Cl)c(Cl)c2)CC1 | 750 nM
CO/C(=C\C=C\c1cc2cc(Cl)c(Cl)cc2[nH]1)C(=O)NCCCN1CCN(c2cccc(OC)c2)CC1 | 840 nM
O=C(Cn1cc(C(F)(F)F)cc(Cl)c1=O)N1CCN(S(=O)(=O)c2ccc(Cl)cc2)CC1 | 900 nM
Nc1cccc(CNCc2cccc(-c3ccc(-c4nc5ccccc5[nH]4)cc3)c2)c1 | 420 nM
COc1nc2c(CCN3CC[C@@H](NCc4cc(C#N)c5c(c4)CCO5)[C@@H](O)C3)ccnc2cc1F | 1030 nM
O=[N+]([O-])c1cc(C(c2ccc(O)c([N+](=O)[O-])c2)C(Cl)(Cl)Cl)ccc1O | 730 nM
Cc1nc(N)nc(N)c1-c1ccc2ccccc2c1 | 870 nM
NC(N)=NN=Cc1cc([N+](=O)[O-])ccc1Sc1ccccc1CO | 1460 nM
COc1ccc(NC(=O)/C=C/c2ccccc2Cl)cc1OCCN1CCC(NC2CC2)CC1 | 840 nM
CC[C@H]1CN2CC[C@@H]1C[C@H]2[C@H](O)c1cc(-c2ccc(F)cc2)nc2ccc(O)cc12 | 140 nM
O=C(/C=C/c1cccs1)NCC(NCCCNc1cc(=O)c2ccccc2[nH]1)c1cc(Br)cc(Br)c1 (stereo not given) | 890 nM
CC(C)c1ccc(CN2CCCCC(NC(=O)c3cc(-c4cccc(F)c4)cs3)C2)cc1 (stereo not given) | 940 nM
O=C(NC1CCN(Cc2ccc(F)cc2)CC1)c1ccc(-c2cccc(C(F)(F)F)c2)s1 | 1360 nM
CCCc1cc(N2CCC(N3CCCC3)CC2)nc(Nc2ccc(OC)cc2)n1 | 810 nM
COc1ccc2c(c1)OC(C)(C)CC2=NOS(=O)(=O)c1ccc(C)cc1 | 210 nM
C[C@@H]1CN(c2cnn(Cc3cccc(NC(=O)Nc4ccc(F)cc4[N+](=O)[O-])c3)c(=O)c2Cl)C[C@H](C)N1 | 870 nM
Cc1nc(-c2cccc3c(NC(=O)Nc4ccc5nccc(N6CCN(C)CC6)c5c4)cccc23)no1 | 230 nM
CSc1nccc(-c2ccc(S(=O)(=O)NC3CCC(CN4CCC(c5c[nH]c6ccccc56)CC4)CC3)s2)n1 (stereo not given) | 250 nM and 810 nM
Cc1ccc2nc(C)cc(NN=Cc3ccccc3[N+](=O)[O-])c2c1 | 170 nM
COc1ccc(C(=O)CCC(=O)N(Cc2ccc(-c3ccc(CNCCc4ccc(S(C)(=O)=O)cc4)cn3)cc2)C2C[C@@H]3CC[C@H]2C3)cc1F (stereo not given in full) | 930 nM
